Experimental data as given in patent publication US6620828B2, “Thiazole compounds and pharmaceutical compositions for inhibiting protein kinases and methods for their use” (Agouron Pharmaceuticals, Inc., priority 1999, dated 2003).
Where “and” joins values, the source holds several entries; their conditions need not be identical. Identical values can stand only once.

Assays:
[1] = biological target: T1, phosphorylated VEGF-R2Δ50 (Homo sapiens, UniProt P35968, DEL940-989/E990V); assay: VEGF-R2 ELISA assay; format: biochemical; conditions: Table 2; * determined with ELISA assay; read-out: FLVK-P Ki
T1 construct: VEGF-R2Δ50 contains residues 806-939 and 990-1171; made in house; host or cells: baculovirus/insect cells
Summary of the method: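 Pre-autophosphorylated human VEGF-R2Δ50 (residues 806-939/990-1171, E990V; baculovirus) at 0.8 nM was run with 2 μM biotin-gastrin(1-17), 20 μM ATP, 26 mM MgCl2, 2 mM MnCl2, pH 7.5 Hepes. Phosphopeptide was captured on streptavidin and detected by anti-pTyr-HRP/ABTS at 405 nm; Ki came from activity at varying compound concentrations.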

[2] = biological target: CDK2/Cyclin A complex (Homo sapiens, UniProt P24941); assay: CDK2/Cyclin A assay; format: biochemical; conditions: Table 2
Summary of the method: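 Radiometric assay: 150 nM CDK2/cyclin A (insect-cell CDK2, truncated cyclin A) phosphorylates His-tagged Rb fragment (residues 386-928) with 25 μM ATP plus [32P]ATP, pH 7.4 HEPES, 2% DMSO, 30 °C for 20 min. Filter-captured product counted by phosphorimager; apparent Ki from competitive or tight-binding inhibition fits.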

[3] = biological target: T2, FAKcd409 (Homo sapiens, UniProt Q05397, P410T); assay: FAK HTS assay; format: biochemical; conditions: 10 uM compound, HTS Delphia assay
T2 construct: comprises residues methionine 409 to glutamate 689; made in house; host or cells: baculovirus vector expression system

[4] = biological target: T3, CHK1 (Homo sapiens, UniProt O14757); assay: CHK1 high-throughput screening; format: biochemical; conditions: for % inhibition @ 20 μM: Table 4, repeated entries per example; for inhibition at 20 µM: read-out: % inhibition @ 20 μM, Table 4, repeated entries per example
T3 sequence (O14757 1-476): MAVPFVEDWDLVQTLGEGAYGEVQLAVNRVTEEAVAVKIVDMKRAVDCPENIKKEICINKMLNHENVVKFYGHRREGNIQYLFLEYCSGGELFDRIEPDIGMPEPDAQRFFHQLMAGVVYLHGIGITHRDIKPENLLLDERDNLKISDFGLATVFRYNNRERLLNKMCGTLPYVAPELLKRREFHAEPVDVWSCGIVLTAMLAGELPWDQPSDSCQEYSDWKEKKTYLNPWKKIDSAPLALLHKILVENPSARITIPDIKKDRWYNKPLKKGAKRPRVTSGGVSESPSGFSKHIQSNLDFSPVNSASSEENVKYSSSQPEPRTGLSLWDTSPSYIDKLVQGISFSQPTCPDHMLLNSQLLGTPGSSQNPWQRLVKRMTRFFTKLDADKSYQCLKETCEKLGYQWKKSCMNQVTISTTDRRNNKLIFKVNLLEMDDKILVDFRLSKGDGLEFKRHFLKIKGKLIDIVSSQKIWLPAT

[5] = biological target: T4, CDK4/Cyclin D3 complex (Homo sapiens, UniProt P11802); assay: CDK4/Cyclin D assay; format: biochemical; conditions: Table 2
T4 construct: made in house; host or cells: insect cells co-infected with baculovirus vectors
Summary of the method: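 Insect-cell-expressed CDK4/cyclin D3 (50 nM) phosphorylating His-tagged Rb fragment (residues 386-928) with 25 μM [^32P]ATP in HEPES pH 7.4, MgCl2, 2% DMSO; 20 min at 30 °C, EDTA stop. Filter-captured 32P by phosphorimager; apparent Ki from competitive or tight-binding inhibition fits.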

[6] = biological target: T5, FGF-R1 (Homo sapiens, UniProt P11362, C488A/C584S/L457V); assay: FGF-R spectrophotometric assay; format: biochemical; conditions: Table 2; for FGF-R % inhibition @ 5: at 5 (head μM)
T5 construct: starting from the endogenous methionine residue 456 to glutamate 766; made in house; host or cells: baculovirus vector expression system
Summary of the method: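 Kinase domain (Met456–Glu766, baculovirus-expressed) used at 50 nM in a spectrophotometric assay run as for VEGF-R2. Substrates were 2 mM ATP and 15 mM poly(E4Y1).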

[7] = biological target: T6, phosphorylated VEGF-R2Δ50 (FLVK-P) (Homo sapiens, UniProt P35968, DEL940-989/E990V); assay: VEGF-R2 coupled spectrophotometric (FLVK-P) assay; format: biochemical; conditions: Table 2; spectrophotometric assay
T6 construct: VEGF-R2Δ50 contains residues 806-939 and 990-1171; made in house; host or cells: baculovirus/insect cells
Summary of the method: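 Baculovirus-expressed human VEGF-R2Δ50 (residues 806-939/990-1171, E990V) was autophosphorylated with 3 mM ATP, 40 mM MgCl2 for 2 h at 4° C. ADP formation was coupled via PK/LDH to NADH oxidation, read at 340 nm, with 5.1 mM poly(E4Y1), 1 mM ATP, 25 mM MgCl2, Hepes pH 7.5. Ki came from activity across compound concentrations.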

[8] = biological target: T7, FL-CHK1 (Homo sapiens, UniProt O14757); assay: CHK1 assay; format: biochemical; conditions: Table 2; read-out: CHK-1 Ki
T7 construct: C-terminally His-tagged full-length human CHK1 (FL-CHK1); 6xHis (C); made in house; host or cells: baculovirus/insect cells
T7 sequence (O14757 1-476): T3 sequence (O14757 1-476)
Summary of the method: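 Full-length human CHK1 with C-terminal 6×His tag, made in baculovirus/insect cells, 10 nM, phosphorylating 0.125 mM Syntide-2 with 0.15 mM ATP in 50 mM Tris pH 7.5, 25 mM MgCl2, 400 mM NaCl. PK/LDH-coupled NADH oxidation read at 340 nm. Ki from initial rates over varied compound concentrations.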

[9] = test system: lung cancer cells (line MV522); assay: Cancer cell proliferation (MV522) assay; format: cell-based; conditions: MV522, Table 2
[10] = test system: human umbilical vein endothelial cells (HUVEC); assay: HUVEC proliferation assay; format: cell-based; conditions: Homo sapiens, HUVEC, Table 2
Summary of the method: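 Readout was MTT dye reduction (A595) after 72 h of stimulation with VEGF at 6 ng/ml final. Compound, in 0.1% DMSO final, was added 1 h before VEGF to HUVEC starved 24 h in 1% FBS. % inhibition was scaled between VEGF-alone and unstimulated wells; IC50 was fitted from triplicate dose curves.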

T4 sequence (P11802 whole entry): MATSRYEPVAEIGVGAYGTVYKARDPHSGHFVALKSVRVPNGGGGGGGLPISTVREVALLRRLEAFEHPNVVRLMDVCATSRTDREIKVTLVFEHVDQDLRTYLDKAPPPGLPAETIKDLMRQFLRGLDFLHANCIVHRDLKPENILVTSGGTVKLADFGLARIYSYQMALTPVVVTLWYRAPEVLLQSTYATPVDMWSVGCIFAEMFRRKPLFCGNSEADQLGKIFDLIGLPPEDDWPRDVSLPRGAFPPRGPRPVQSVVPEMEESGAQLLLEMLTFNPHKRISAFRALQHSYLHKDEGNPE
T4 sequence (P30281 whole entry partner): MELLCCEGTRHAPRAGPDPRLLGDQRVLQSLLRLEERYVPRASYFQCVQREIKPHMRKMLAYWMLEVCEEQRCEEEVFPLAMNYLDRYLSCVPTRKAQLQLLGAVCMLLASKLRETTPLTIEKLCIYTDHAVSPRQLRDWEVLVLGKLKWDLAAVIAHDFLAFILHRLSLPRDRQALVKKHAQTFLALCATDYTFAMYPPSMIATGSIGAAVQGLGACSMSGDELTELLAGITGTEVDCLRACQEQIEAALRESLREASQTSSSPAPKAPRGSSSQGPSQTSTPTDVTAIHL
T5 sequence (P11362 456-766 L457V/C488A/C584S): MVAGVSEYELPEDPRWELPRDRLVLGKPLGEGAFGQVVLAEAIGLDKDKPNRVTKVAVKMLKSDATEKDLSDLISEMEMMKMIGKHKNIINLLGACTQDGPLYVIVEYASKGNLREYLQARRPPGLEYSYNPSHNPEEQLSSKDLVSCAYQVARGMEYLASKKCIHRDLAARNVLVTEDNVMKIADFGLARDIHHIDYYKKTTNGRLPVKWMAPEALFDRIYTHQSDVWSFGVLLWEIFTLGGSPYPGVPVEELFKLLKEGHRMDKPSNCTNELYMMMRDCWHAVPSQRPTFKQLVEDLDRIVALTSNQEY
T2 sequence (Q05397 409-689 P410T): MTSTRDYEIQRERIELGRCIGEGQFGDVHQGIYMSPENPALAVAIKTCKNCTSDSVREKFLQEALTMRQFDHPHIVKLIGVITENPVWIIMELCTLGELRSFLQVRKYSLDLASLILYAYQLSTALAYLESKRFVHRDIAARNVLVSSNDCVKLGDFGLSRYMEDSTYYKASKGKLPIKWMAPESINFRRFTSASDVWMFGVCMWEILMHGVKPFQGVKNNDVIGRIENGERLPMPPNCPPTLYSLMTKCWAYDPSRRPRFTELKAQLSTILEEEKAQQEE
T6 sequence (P35968 with tags, fused parts or gaps DEL940-989/E990V limits assumed): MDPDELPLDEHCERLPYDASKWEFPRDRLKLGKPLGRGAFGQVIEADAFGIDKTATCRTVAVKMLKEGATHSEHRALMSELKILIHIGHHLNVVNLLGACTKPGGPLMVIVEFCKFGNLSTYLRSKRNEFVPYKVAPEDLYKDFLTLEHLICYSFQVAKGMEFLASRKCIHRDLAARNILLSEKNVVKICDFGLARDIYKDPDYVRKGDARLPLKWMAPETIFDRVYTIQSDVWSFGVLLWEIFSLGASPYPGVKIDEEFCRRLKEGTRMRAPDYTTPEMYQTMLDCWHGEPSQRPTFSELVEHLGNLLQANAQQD
T1 sequence (P35968 with tags, fused parts or gaps DEL940-989/E990V limits assumed): as above

Ki [1] [µM]	Ki [2] [µM]	melting point	% inhibition @ 20 μM [4]	Ki [5] [µM]	% inhibition of FAK ([3]; 10 µM)	Ki [7] [µM]	inhibition at 20 µM [4] [%]	SMILES	also measured
64	2.5	231 to 235 °C (dec.)	2.8% and −1.9%	8.4				COc1ccccc1-c1csc(-c2sc(Nc3ccc(S(N)(=O)=O)cc3)nc2N)n1 [A(3), 4-[4′-Amino-4-(2-methoxy-phenyl)-[2,5′]bithiazolyl-2′-ylamino]-benzenesulfonamide]	% inhibition of FAK [3]: −9%
25	2.7	130 to 135 °C (dec.)	−4.1% and −1.2%	7.8	−9% and −7% and 0%			Cc1nc(-c2sc(Nc3ccc(S(N)(=O)=O)cc3)nc2N)sc1Cc1ccc(F)cc1 [A(15), 4-[4′-Amino-5-(4-fluoro-benzyl)-4-methyl-[2,5′]bithiazolyl-2′-ylamino]-benzenesulfonamide]	
	0.53	200 to 202 °C	12.2%	4.4	6%		7.4	C=CCOc1cc(O)cc(-c2csc(-c3sc(Nc4ccc(S(N)(=O)=O)cc4)nc3N)n2)c1 [A(62), 4-[4-(3-Allyloxy-5-hydroxyphenyl)-4′-amino-[2,5′]bithiazolyl-2′-ylamino]-benzenesulfonamide]	inhibition at 10 µM [3]: 7%
	0.15	190 to 193 °C (dec.)	3.2% and 2.5% and 8.2%	2.1	−31% and −39%			COc1ccc(/C=C/c2csc(-c3sc(Nc4ccc(S(N)(=O)=O)cc4)nc3N)n2)cc1O [A(65), 4-{4′-Amino-4-[2-(3-hydroxy-4-methoxy-phenyl)-ethenyl]-[2,5′]bithiazolyl-2′-ylamino}-benzenesulfonamide]	
	1.1	193 to 195 °C (dec.)	3.6% and 6.6% and 9.1%		−38% and −39%			Nc1nc(Nc2ccc(S(N)(=O)=O)cc2)sc1-c1nc(/C=C/C=C/c2ccccc2)cs1 [A(66), 4-[4′-Amino-4-(4-phenyl-buta-1,3-dienyl)-[2,5′]bithiazolyl-2′-ylamino]-benzenesulfonamide]	
	0.015	255 to 260 °C (dec.)		0.67	−29% and −33%	0.11		Nc1nc(Nc2ccc(S(N)(=O)=O)cc2)sc1-c1nc(C(=O)c2ccccc2)cs1 [A(67), 4-(4′-Amino-4-benzoyl-[2,5′]bithiazolyl-2′-ylamino)-benzenesulfonamide]	

Second part, the molecule before the results:

SMILES	Ki [1] [µM]	Ki [2] [µM]	melting point	% inhibition @ 20 μM [4]	Ki [5] [µM]	% inhibition of FAK ([3]; 10 µM)	Ki [7] [µM]	inhibition at 20 µM [4] [%]	also measured
COc1cc(Nc2nc(N)c(-c3nc(-c4ccc(F)cc4F)cs3)s2)cc(OC)c1OC [A(9), 4-(2,4-Difluoro-phenyl)-N^2′-(3,4,5-trimethoxy-phenyl)-[2,5′]bithiazolyl-2′,4′-diamine]	1.9		180 to 183 °C (dec.)			−6% and −5% and 4%			CDK2 % inhibition @ 100 ([2]; at 100 (printed 100 or 100 μM)): 29% @; inhibition at 100 µM ([5]; at 100 (printed 100 or 100 μM)): < 0%
COc1cc(Nc2nc(N)c(-c3nc(-c4ccc(O)cc4)cs3)s2)cc(OC)c1OC [A(10), 4-[4′-Amino-2′-(3,4,5-trimethoxy-phenylamino)-[2,5′]bithiazolyl-4-yl]-phenol]		13.4	129 to 133 °C (dec.)		9.1	−2% and −5% and −4%	0.028		FGF-R % inhibition @ 5 [6]: 45% @
COc1cc(Nc2nc(N)c(-c3nc(-c4ccc(O)c(O)c4)cs3)s2)cc(OC)c1OC [A(12), 4-[4′-Amino-2′-(3,4,5-trimethoxy-phenylamino)-[2,5′]bithiazolyl-4-yl]-benzene-1,2-diol]		6.7	132 to 137 °C (dec.)		2.7		0.034		Ki [6]: 190 µM; % inhibition of FAK [3]: −16%
COc1cc(Nc2nc(N)c(-c3nc(-c4cc(O)cc(O)c4)cs3)s2)cc(OC)c1OC [A(18), 5-[4′-Amino-2′-(3,4,5-trimethoxy-phenylamino)-[2,5′]bithiazolyl-4-yl]-benzene-1,3-diol]			198 to 202 °C			32% and 29%		60.8	FGF-R % inhibition @ 5 [6]: 38% @; inhibition at 10 µM [3]: 25%
COc1cc(Nc2nc(N)c(-c3nc(-c4cc(O)ccc4O)cs3)s2)cc(OC)c1OC [A(25), 2-(4′-Amino-2′-(3,4,5-trimethoxy-phenylamino)-[2,5′]bithiazolyl-4-yl]-benzene-1,4-diol]	0.1		208 to 212 °C (dec.)			60% and 47% and 57% and 90% and 88%		19.7	Ki [8]: 0.29 µM
COc1cc(Nc2nc(N)c(-c3nc(-c4cc(O)ccc4Br)cs3)s2)cc(OC)c1OC [A(26), 3-[4′-Amino-2′-(3,4,5-trimethoxy-phenylamino)-[2,5′]bithiazolyl-4-yl]-4-bromophenol]			214 to 216 °C				0.014	42.5	FGF-R % inhibition @ 5 [6]: 52% @; % inhibition of FAK [3]: 72%; IC50 [9]: 7.5 µM; IC50 [10]: > 1 µM
COc1cc(Nc2nc(N)c(-c3nc(-c4cccc(C(=O)Nc5ccc6nc(C)ccc6c5)c4)cs3)s2)cc(OC)c1OC [A(35), 3-[4′-Amino-2′-(3,4,5-trimethoxy-phenylamino)-[2,5′]bithiazolyl-4-yl]-N-(2-methyl-quinolin-6-yl)-benzamide]	390					−5% and −9% and −10%			
